For this experiment, the target named is 3',5'-cyclic-AMP phosphodiesterase 4B (Homo sapiens, UniProt Q07343). Description: cAMP HTRF Assay to Determine the Activity of hPDE4B1: The inhibiting effect of the compounds on the enzyme activity of human PDE4B1 was measured by the quantification of 5′-adenosine monophosphate (5′-AMP), which is formed from 3′,5′-cyclic adenosine monophosphate (cAMP). Human recombinant enzyme, expressed in Sf9 cells, and the HTRF (homogeneous time-resolved fluorescence) detection method were used in the assay.The test compound or water (control) was mixed with the human recombinant PDE4B1 enzyme (4.8 U) in a buffer consisting of 44.4 mM tris-HCl, 5.28 mM MgCl2, 2.64 mM DTT and 0.044% Tween 20 (pH 7.8). After adding the cAMP enzyme substrate (final concentration 40 nM), the mixture was incubated for 30 minutes at room temperature. Then a fluorescence acceptor (Dye2 marked with cAMP), a fluorescence donor (anti-cAMP antibody marked with a europium cryptate) and the non-specific phosphodiesterase inhibitor IBMX (3-isobutyl-1-methylxanthine; final concentration 1 mM) were added. After 60 min the fluorescence transfer, which correlates with the amount of remaining cAMP, was measured with a microplate reader (Rubystar, BMG) at λex=337 nm, λem=620 nm and λem=665 nm. The enzyme activity was calculated from the quotient formed from the measured signal at 665 nm and that at 620 nm. […].

pIC50: −log10 of the molar value.

What is called pIC50 is the negative decadic logarithm of the IC50, by convention in mol/L.

Sequence of 3',5'-cyclic-AMP phosphodiesterase 4B (Q07343 whole entry): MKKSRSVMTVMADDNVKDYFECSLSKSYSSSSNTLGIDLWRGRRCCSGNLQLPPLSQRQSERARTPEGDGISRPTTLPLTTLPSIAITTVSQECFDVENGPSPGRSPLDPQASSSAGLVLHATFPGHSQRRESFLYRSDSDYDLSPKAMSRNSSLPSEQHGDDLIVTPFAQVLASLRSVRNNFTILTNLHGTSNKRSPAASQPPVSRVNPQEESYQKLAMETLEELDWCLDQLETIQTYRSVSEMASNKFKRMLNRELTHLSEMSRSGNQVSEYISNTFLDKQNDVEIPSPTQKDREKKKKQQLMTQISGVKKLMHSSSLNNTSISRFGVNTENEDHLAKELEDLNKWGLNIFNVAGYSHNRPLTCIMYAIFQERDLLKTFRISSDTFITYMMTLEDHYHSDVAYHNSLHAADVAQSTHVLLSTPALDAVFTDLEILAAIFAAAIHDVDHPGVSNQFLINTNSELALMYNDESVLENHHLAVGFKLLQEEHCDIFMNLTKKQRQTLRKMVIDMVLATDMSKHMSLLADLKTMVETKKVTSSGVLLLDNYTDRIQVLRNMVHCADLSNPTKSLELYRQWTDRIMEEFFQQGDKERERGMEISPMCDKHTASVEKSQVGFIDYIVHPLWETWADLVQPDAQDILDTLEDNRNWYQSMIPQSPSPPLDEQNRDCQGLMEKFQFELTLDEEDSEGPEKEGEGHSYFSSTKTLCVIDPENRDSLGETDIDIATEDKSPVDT

As for `CNCCN(C)C(=O)c1ccc2c(c1)N(c1ncc(-c3ccccc3F)cn1)CC21CC1`, the negative-log IC50 (pIC50) was above 7.00.
As for `CCc1csc(-c2cnc(N3CC4(CC4)c4ccc(C(=O)N(C)CCO)cc43)nc2)n1`, the figure is above 7.00.

Source of the values: ChEMBL document CHEMBL5726293, “Substituted pyrimidine compounds” (2019).
